Test results taken from patent publication US9364480B2, “Pharmaceutical composition for preventing or treating cancer, containing enoblock as active ingredient” (GWANGJU INSTITUTE OF SCIENCE AND TECHNOLOGY, priority 2012, dated 2016).
“Also recorded” adds a separate entry of the source.

What was measured:
[1] = test system: 5′ AMP-activated protein kinase (AMPK) expression in hepatocytes; experiment: AMPK expression in hepatocytes; format: cell-based; conditions: 10 μM, 24 h
From the text: (§1) FIG. 10. […] Error=SD; *=P<0.05 compared to the no drug (DMSO-treated) group. […] Error=SD; *=P<0.05 for reduced PEPCK expression compared to the no drug (DMSO-treated) group.

[2] = test system: glucose 6-phosphatase (G6 Pase) expression in hepatocytes; experiment: G6 Pase expression in hepatocytes; format: cell-based; conditions: 10 μM, 24 h
From the text: as §1

[3] = test system: HCT116 cancer cells; experiment: Cancer cell migration (transwell inserts, crystal violet); format: cell-based; conditions: HCT116, normoxia
Protocol: (§2) FIG. 7. […] (b) Microscopic images of crystal violet stained HCT116 cells invaded onto the transwell inserts (scale bar=100 μm). […] (d) Microscopic images of crystal violet stained HCT116 cells migrated onto the transwell inserts (scale bar=100 μm). […] Cells were treated with 10 nM taxol and 10 nM vincristine, with or without 10 μM ENOblock. Error=SD; *=P<0.05 between the groups indicated on the graph. […] For the AKT Western blot, cells were treated with ENOblock for 24 h; for the Bcl-Xl Western blot, cells were treated with ENOblock for 48 h.

[4] = test system: HCT116 cancer cells; experiment: Cancer cell invasion (transwell inserts, crystal violet); format: cell-based; conditions: HCT116, normoxia
Protocol: as §2

[5] = test system: zebrafish larvae; experiment: Toxicological analysis using the zebrafish larvae system; format: in vivo, zebrafish (Danio rerio); conditions: for microscopic assessment of larvae morphology: 72 days post fertilization (dfp) zebrafish larvae
Protocol: FIG. 9. Toxicological study of ENOblock and in vivo analysis of anticancer activity. (A) Toxicological analysis of ENOblock treatment using the zebrafish larvae system. […] (B) Microscopic assessment of […] post fertilization (dfp) zebrafish larvae exposed to increasing doses of ENOblock. […] Error=SD; *=P<0.05 compared to the DMSO treated group. P value: 20 μM ENOblock=0.0121; 40 μM ENOblock=0.0019. […] DMSO treatment served as a control. Three representative embryos are shown from each experimental group, and distributed cancer cell foci are designated with blue arrows. […] Error=SD; *=P<0.05 compared to the DMSO-treated group.
The zebrafish (Danio rerio) cancer cell xenograft model is gaining increasing research prominence as a validated, convenient tool for testing candidate cancer drugs in vivo.^10,11 In addition, zebrafish is a relevant vertebrate platform for predicting toxicological effects in mammals.^12 We observed that 10 μM ENOblock treatment of developing zebrafish larvae was nontoxic (FIG. 9a-9c).

[6] = test system: HCT116 colon carcinoma cells; experiment: Screening for apoptosis inducers effective under hypoxia (MTT cytotoxicity, hypoxia vs normoxia); format: cell-based
Protocol: FIG. 1. Discovery of compound AP-III-a4 (ENOblock). (a) Schematic of the screening system used to detect apoptosis inducers effective under hypoxia. HCT116 cancer cells were seeded in parallel 96-well culture plates. Hypoxia was induced in one plate using 150 μM cobalt chloride treatment. Triazine library compound at 5 μM concentration was added 4 h later, and cell death was determined 24 h after hypoxia induction. […] (b) Chemical structures of AP-III-a4 (ENOblock) and the control compounds, AP-IV-e3 and AP-I-f10. Chemical structures of GAPDS, which targets glyceraldehyde 3-phosphate dehydrogenase (GAPDH), and rosiglitazone, a well-known anti-diabetes drug, are also shown. […] Error=SD; *=P value<0.05 for increased cell death compared to normoxia. P value: hypox 10=1.23×10^−6; hypox 5=2.38×10^−6; hypox 2.5=1.16×10^−5; hypox 1.25=0.000334. (d) Representative phase contrast microscopic images of HCT116 colon cancer cells treated with ENOblock under normoxia or hypoxia.
HCT116 colon carcinoma cells were seeded in 2 sets of 96 well plates at a density of 5×10^3 cells per well. ‘Low glucose’ DMEM (containing 5 mM glucose; Invitrogen, OR, USA) was used for screening, because glycolysis inhibitors, such as 2-Deoxy-D-glucose (2-DG), are effective by competing with glucose. 24 h later, the hypoxic condition was induced in one set of 96 well plates by treatment with 150 μM of 0.22 μm filtered CoCl2 and the culture media volume was reduced by 50% (to 100 μL/well), as previously described.^49 4 h later, test compounds from a tagged triazine library^5 were screened at a concentration of 5 μM in duplicate wells. Cytotoxicity was determined by MTT assay 24 h after adding drug. ‘Hits’ for further analysis were classified as compounds that 25% or higher cytotoxicity in the hypoxia condition compared to the normoxia condition (as measured by MTT assay absorbance). 50 μM 2-DG, an inhibitor of glycolysis that selectively kills cancer cells in hypoxic conditions^50, was used as a positive control.
We developed a novel, dual screening system to identify molecules that preferentially kill cancer cells in a hypoxic environment (FIG. 1). A small molecule library of 384 triazines prepared on a solid support5 (5; FIG. 3) was screened. A “hit” molecule was defined as an inducer of at least 25% increased cancer cell toxicity in hypoxia compared to normoxia (as determined using the 3-(4,5-dimethylthiazol-2-yl)-2,5-diphenyltetrazolium bromide, a tetrazole (MTT) assay). Five from 384 triazines screened produced greater cancer cell toxicity under hypoxia.

[7] = test system: Bcl-Xl expression in HCT116 cancer cells; experiment: Bcl-Xl Western blot; format: cell-based; conditions: 48 h treatment
Protocol: as §2

[8] = test system: PEPCK expression in HEK cells; experiment: PEPCK expression in kidney cells; format: cell-based; conditions: 10 μM, 24 h
From the text: as §1

[9] = test system: pre-adipocytes undergoing adipogenesis; experiment: Adipogenesis lipid accumulation (Oil Red O staining); format: cell-based
[10] = test system: HCT116 cancer cells; experiment: Sensitivity to antitubulin chemotherapeutics taxol and vincristine; format: cell-based; conditions: 10 nM taxol or 10 nM vincristine with or without 10 μM ENOblock
Protocol: as §2

[11] = test system: Huh7 hepatocytes; experiment: Glucose uptake with fluorescent glucose probe 2-NBDG, hepatocytes; format: cell-based; conditions: 10 μM, 24 h
[12] = test system: HEK kidney cells; experiment: Glucose uptake with fluorescent glucose probe 2-NBDG, kidney cells; format: cell-based; conditions: 10 μM, 24 h
[13] = test system: monocytes; experiment: Monocyte differentiation into macrophages (attached cell count, PMA); format: cell-based; conditions: PMA treated; 10 μM
Protocol: FIG. 14. […] Treatment with 3 mM H2O2 for 48 h was used as a positive control.

[14] = test system: phosphoenolpyruvate carboxykinase (PEPCK) expression in Huh7 hepatocytes; experiment: PEPCK expression in hepatocytes; format: cell-based; conditions: 10 μM, 24 h
From the text: as §1

NCCOCCOCCNC(=O)Cc1ccc(Nc2nc(NCc3ccc(F)cc3)nc(NCC3CCCCC3)n2)cc1 [ENOblock]
AMPK expression [1]: did not affect expression of the enzymes
glucose 6-phosphatase (G6 Pase) expression [2]: did not affect expression of the enzymes
cancer cell migration [3]: inhibited cell migration dose-dependently
inhibition of cell migration compared with LY294002 [3]: more effective than LY294002 at inhibiting cell migration
cancer cell invasion ([4]; 0.625-2.5 μM): inhibited invasion dose-dependently
treatment concentration at which cancer cell invasion is significantly inhibited ([4]; P value=0.0481): 0.625 µM
overall zebrafish larvae viability ([5]; 10 μM): did not affect viability
overall zebrafish larvae viability ([5]; 20 μM): reduced overall zebrafish larvae viability
overall zebrafish larvae viability ([5]; 40 μM): reduced overall zebrafish larvae viability
microscopic assessment of larvae morphology ([5]; 20 μM): produced an abnormally large swim bladder
microscopic assessment of larvae morphology ([5]; 40 μM): produced multiple abnormalities in the larvae
toxicity / tolerability (developmental parameters) ([5]; zebrafish larvae, 10 μM): could be tolerated by the larvae; also recorded: nontoxic
ability to swim ([5]; zebrafish larvae, 20 μM): inhibited the ability to swim
cell viability of cancer cells cultured under hypoxia ([6]; FIG. 1c-1d): reduced cell viability dose-dependently
hit classification in triazine library screen (25% or greater cell death under hypoxia compared to normoxia) ([6]; HCT116, 5 μM compound, 24 h, MTT): best performing hit molecule
cell death in hypoxic conditions compared to normoxia ([6]; HCT116, hypoxia by 150 μM cobalt chloride, MTT, FIG. 1c): higher levels of HCT116 colon cancer cell death in hypoxic conditions (Hypox) compared to normoxia
trypan blue uptake (cell death) ([6]; under hypoxia): increased trypan blue uptake under hypoxia
Bcl-Xl expression [7]: decreased the expression of AKT and Bcl-Xl
PEPCK expression [8]: inhibited expression of PEPCK
lipid accumulation during adipogenesis (Oil Red O, microscopy) ([9]; 10 μM): inhibited lipid accumulation
quantification of lipid accumulation during adipogenesis ([9]; ENOblock treatment with adipogenic cocktail): blocked lipid accumulation during adipogenesis
sensitivity to taxol and vincristine (cytotoxicity) [10]: increased sensitivity to the antitubulin chemotherapeutics taxol and vincristine
glucose uptake (2-NBDG) [11]: induced glucose uptake
glucose uptake (2-NBDG) [12]: induced glucose uptake
monocyte differentiation into macrophages (number of attached cells) [13]: inhibited differentiation into macrophages
PEPCK expression [14]: inhibited expression of PEPCK
